Measurements published in paper PMC6120666 (The EMBO Journal, 2018).

Columns and labels:
Test in all cases: Drug affinity chromatography with c-ponatinib and LC-MS/MS (ponatinib interactome)
Type in all cases: binding
[1] = target: T1, proteins of U2OS cell lysate (Homo sapiens, UniProt P10606); settings: captured protein COX5B, Rank 183
T1 construct: Proteins enriched by c-ponatinib from U2OS cell lysate; endogenous in cells; host or cells: U2OS cell lysate
Summary of the method: (§1)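 U2OS cell lysate in NP-40 lysis buffer (2 mg protein per pulldown) was incubated with amine-derivatized NHS beads for 2 h at 4 °C. Bound proteins were washed, eluted with 100 mM formic acid, reduced, alkylated and trypsin-digested, then identified by nano-UPLC–MS/MS on Orbitrap instruments with a 60 min gradient.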

[2] = target: T2, proteins of U2OS cell lysate (Homo sapiens, UniProt Q9Y4K4); settings: MAP4K5, Mitogen-activated protein kinase kinase kinase kinase 5
T2 construct: Proteins enriched by c-ponatinib from U2OS cell lysate; endogenous in cells; host or cells: U2OS cell lysate
Summary of the method: as §1

[3] = target: T3, proteins of U2OS cell lysate (Homo sapiens, UniProt O14980); settings: XPO1, Exportin-1
T3 construct: Proteins enriched by c-ponatinib from U2OS cell lysate; endogenous in cells; host or cells: U2OS cell lysate
Summary of the method: as §1

[4] = target: T4, proteins of U2OS cell lysate (Homo sapiens, UniProt Q9Y6G9); settings: DYNC1LI1, Cytoplasmic dynein 1 light intermediate chain 1
T4 construct: Proteins enriched by c-ponatinib from U2OS cell lysate; endogenous in cells; host or cells: U2OS cell lysate
Summary of the method: as §1

[5] = target: T5, proteins of U2OS cell lysate (Homo sapiens, UniProt Q13546); settings: RIPK1, Receptor-interacting serine/threonine-protein kinase 1
T5 construct: Proteins enriched by c-ponatinib from U2OS cell lysate; endogenous in cells; host or cells: U2OS cell lysate
Summary of the method: as §1

[6] = target: T6, proteins of U2OS cell lysate (Homo sapiens, UniProt P62851); settings: RPS25, 40S ribosomal protein S25
T6 construct: Proteins enriched by c-ponatinib from U2OS cell lysate; endogenous in cells; host or cells: U2OS cell lysate
Summary of the method: as §1

[7] = target: T7, proteins of U2OS cell lysate (Homo sapiens, UniProt Q01650); settings: SLC7A5, Large neutral amino acids transporter small subunit 1
T7 construct: Proteins enriched by c-ponatinib from U2OS cell lysate; endogenous in cells; host or cells: U2OS cell lysate
Summary of the method: as §1

[8] = target: T8, proteins of U2OS cell lysate (Homo sapiens, UniProt Q14974); settings: KPNB1, Importin subunit beta-1
T8 construct: Proteins enriched by c-ponatinib from U2OS cell lysate; endogenous in cells; host or cells: U2OS cell lysate
Summary of the method: as §1

[9] = target: T9, proteins of U2OS cell lysate (Homo sapiens, UniProt P09382); settings: LGALS1, Galectin-1
T9 construct: Proteins enriched by c-ponatinib from U2OS cell lysate; endogenous in cells; host or cells: U2OS cell lysate
Summary of the method: as §1

[10] = target: T10, proteins of U2OS cell lysate (Homo sapiens, UniProt P08559); settings: PDHA1, Pyruvate dehydrogenase E1 component subunit alpha, somatic form, mitochondrial
T10 construct: Proteins enriched by c-ponatinib from U2OS cell lysate; endogenous in cells; host or cells: U2OS cell lysate
Summary of the method: as §1

[11] = target: T11, proteins of U2OS cell lysate (Homo sapiens, UniProt Q86UP2); settings: KTN1, Kinectin
T11 construct: Proteins enriched by c-ponatinib from U2OS cell lysate; endogenous in cells; host or cells: U2OS cell lysate
Summary of the method: as §1

[12] = target: T12, proteins of U2OS cell lysate (Homo sapiens, UniProt P31947); settings: SFN, 14-3-3 protein sigma
T12 construct: Proteins enriched by c-ponatinib from U2OS cell lysate; endogenous in cells; host or cells: U2OS cell lysate
Summary of the method: as §1

[13] = target: T13, proteins of U2OS cell lysate (Homo sapiens, UniProt Q07065); settings: CKAP4, Cytoskeleton-associated protein 4
T13 construct: Proteins enriched by c-ponatinib from U2OS cell lysate; endogenous in cells; host or cells: U2OS cell lysate
Summary of the method: as §1

[14] = target: T14, proteins of U2OS cell lysate (Homo sapiens, UniProt P62081); settings: RPS7, 40S ribosomal protein S7
T14 construct: Proteins enriched by c-ponatinib from U2OS cell lysate; endogenous in cells; host or cells: U2OS cell lysate
Summary of the method: as §1

[15] = target: T15, proteins of U2OS cell lysate (Homo sapiens, UniProt Q13428); settings: TCOF1, Treacle protein
T15 construct: Proteins enriched by c-ponatinib from U2OS cell lysate; endogenous in cells; host or cells: U2OS cell lysate
Summary of the method: as §1

[16] = target: T16, proteins of U2OS cell lysate (Homo sapiens, UniProt P62258); settings: YWHAE, 14-3-3 protein epsilon
T16 construct: Proteins enriched by c-ponatinib from U2OS cell lysate; endogenous in cells; host or cells: U2OS cell lysate
Summary of the method: as §1

[17] = target: T17, proteins of U2OS cell lysate (Homo sapiens, UniProt Q14152); settings: EIF3A, Eukaryotic translation initiation factor 3 subunit A
T17 construct: Proteins enriched by c-ponatinib from U2OS cell lysate; endogenous in cells; host or cells: U2OS cell lysate
Summary of the method: as §1

[18] = target: T18, proteins of U2OS cell lysate (Homo sapiens, UniProt P06748); settings: NPM1, Nucleophosmin
T18 construct: Proteins enriched by c-ponatinib from U2OS cell lysate; endogenous in cells; host or cells: U2OS cell lysate
Summary of the method: as §1

[19] = target: T19, proteins of U2OS cell lysate (Homo sapiens, UniProt O75521); settings: ECI2, Enoyl-CoA delta isomerase 2, mitochondrial
T19 construct: Proteins enriched by c-ponatinib from U2OS cell lysate; endogenous in cells; host or cells: U2OS cell lysate
Summary of the method: as §1

T16 sequence (P62258 whole entry): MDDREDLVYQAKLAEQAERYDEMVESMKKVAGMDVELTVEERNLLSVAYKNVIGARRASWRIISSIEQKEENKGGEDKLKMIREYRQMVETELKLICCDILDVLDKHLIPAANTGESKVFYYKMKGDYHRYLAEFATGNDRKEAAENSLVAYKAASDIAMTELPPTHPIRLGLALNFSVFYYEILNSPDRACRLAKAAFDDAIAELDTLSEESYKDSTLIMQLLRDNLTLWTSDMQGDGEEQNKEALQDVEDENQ
T1 sequence (P10606 32-129): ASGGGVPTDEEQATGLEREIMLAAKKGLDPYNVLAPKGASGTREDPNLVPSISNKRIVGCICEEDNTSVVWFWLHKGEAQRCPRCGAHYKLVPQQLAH
T12 sequence (P31947 whole entry): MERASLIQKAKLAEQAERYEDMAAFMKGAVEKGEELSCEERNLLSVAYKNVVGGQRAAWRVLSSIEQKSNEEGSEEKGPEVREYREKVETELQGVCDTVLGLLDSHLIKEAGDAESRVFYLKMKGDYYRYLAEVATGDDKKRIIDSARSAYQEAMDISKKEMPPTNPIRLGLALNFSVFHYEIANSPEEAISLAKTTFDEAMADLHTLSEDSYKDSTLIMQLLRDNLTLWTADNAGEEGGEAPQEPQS
T4 sequence (Q9Y6G9 whole entry): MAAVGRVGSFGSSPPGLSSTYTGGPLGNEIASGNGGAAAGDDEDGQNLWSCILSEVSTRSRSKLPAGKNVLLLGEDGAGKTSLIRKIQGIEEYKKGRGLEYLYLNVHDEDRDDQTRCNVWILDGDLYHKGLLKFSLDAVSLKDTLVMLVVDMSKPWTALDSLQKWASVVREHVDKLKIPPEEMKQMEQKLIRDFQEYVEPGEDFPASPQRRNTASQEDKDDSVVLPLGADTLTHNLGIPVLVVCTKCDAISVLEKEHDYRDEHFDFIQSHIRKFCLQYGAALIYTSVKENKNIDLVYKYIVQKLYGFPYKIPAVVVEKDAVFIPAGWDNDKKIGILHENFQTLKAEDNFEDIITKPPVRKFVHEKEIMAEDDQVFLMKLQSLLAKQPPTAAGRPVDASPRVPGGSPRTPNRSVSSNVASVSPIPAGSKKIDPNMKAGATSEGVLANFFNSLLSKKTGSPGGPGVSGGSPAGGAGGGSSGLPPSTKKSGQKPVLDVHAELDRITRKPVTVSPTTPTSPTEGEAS
T13 sequence (Q07065 whole entry): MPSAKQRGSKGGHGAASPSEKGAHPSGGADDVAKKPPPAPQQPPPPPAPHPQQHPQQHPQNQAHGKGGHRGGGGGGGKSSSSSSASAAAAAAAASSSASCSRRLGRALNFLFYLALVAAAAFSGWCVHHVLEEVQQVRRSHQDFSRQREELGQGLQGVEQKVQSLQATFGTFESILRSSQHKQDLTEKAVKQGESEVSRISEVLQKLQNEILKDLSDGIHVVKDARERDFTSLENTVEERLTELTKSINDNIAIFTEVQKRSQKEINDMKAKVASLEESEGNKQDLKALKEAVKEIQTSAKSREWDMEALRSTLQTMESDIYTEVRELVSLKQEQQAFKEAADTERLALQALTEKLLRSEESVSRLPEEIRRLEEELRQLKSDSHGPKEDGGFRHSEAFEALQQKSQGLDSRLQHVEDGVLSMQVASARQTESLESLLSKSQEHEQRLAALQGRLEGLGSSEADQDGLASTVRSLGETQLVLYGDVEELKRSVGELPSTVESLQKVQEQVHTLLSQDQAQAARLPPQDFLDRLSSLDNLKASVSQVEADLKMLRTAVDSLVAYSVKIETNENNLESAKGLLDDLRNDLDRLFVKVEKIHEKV
T15 sequence (Q13428 whole entry): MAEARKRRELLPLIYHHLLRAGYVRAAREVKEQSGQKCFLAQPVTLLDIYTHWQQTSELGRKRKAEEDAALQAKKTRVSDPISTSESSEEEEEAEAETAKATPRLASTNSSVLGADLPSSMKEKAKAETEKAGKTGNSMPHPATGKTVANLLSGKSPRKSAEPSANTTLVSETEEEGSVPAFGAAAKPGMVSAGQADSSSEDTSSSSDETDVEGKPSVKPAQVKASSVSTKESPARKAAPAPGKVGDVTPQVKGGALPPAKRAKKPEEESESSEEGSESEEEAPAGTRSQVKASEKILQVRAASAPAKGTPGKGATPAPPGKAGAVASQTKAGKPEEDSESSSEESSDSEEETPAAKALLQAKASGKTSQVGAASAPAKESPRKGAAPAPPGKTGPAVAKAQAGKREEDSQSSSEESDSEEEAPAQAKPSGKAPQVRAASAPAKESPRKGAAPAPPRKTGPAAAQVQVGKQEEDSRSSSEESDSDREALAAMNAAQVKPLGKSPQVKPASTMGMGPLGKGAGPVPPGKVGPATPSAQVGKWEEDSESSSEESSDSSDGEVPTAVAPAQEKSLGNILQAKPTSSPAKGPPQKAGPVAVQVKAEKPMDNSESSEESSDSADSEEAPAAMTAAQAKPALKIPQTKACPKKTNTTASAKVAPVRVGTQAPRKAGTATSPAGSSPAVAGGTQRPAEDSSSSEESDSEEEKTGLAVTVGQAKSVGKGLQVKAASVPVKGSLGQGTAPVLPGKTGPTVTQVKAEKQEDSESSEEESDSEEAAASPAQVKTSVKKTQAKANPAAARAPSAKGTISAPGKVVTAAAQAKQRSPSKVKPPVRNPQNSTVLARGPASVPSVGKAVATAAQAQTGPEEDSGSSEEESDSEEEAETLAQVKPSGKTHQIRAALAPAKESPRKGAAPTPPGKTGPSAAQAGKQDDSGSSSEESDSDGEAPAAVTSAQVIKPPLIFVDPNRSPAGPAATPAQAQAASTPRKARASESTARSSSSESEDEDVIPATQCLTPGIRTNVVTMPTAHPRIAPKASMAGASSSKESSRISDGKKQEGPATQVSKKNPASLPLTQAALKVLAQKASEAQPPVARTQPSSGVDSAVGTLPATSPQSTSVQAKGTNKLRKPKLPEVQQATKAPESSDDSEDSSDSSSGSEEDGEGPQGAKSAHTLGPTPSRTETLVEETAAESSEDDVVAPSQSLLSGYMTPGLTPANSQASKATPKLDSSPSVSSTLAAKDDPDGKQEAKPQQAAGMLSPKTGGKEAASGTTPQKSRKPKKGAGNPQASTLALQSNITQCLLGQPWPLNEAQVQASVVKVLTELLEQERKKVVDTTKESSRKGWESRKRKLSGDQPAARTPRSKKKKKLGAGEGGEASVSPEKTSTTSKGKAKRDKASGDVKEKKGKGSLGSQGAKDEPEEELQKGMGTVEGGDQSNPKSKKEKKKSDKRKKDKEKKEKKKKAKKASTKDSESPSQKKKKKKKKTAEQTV
T19 sequence (O75521 39-394): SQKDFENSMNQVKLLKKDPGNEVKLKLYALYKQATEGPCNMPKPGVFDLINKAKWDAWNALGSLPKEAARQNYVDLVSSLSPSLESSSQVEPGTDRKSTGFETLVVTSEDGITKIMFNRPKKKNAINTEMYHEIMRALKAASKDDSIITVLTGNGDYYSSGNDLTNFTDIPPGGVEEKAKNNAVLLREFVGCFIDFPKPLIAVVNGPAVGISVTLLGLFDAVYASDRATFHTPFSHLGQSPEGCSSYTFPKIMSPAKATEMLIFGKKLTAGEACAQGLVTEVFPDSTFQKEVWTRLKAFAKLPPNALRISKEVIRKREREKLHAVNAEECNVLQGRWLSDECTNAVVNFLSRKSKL
T10 sequence (P08559 30-390): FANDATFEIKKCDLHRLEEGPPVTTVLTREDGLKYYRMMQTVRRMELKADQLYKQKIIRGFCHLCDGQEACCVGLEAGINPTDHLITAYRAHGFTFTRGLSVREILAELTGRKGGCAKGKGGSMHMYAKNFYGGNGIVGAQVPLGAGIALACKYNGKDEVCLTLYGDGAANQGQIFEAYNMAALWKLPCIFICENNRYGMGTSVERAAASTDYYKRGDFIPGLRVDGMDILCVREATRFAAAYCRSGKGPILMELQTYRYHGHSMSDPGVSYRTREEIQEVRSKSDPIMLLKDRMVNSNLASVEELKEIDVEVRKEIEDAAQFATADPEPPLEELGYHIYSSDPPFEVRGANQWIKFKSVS
T3 sequence (O14980 whole entry): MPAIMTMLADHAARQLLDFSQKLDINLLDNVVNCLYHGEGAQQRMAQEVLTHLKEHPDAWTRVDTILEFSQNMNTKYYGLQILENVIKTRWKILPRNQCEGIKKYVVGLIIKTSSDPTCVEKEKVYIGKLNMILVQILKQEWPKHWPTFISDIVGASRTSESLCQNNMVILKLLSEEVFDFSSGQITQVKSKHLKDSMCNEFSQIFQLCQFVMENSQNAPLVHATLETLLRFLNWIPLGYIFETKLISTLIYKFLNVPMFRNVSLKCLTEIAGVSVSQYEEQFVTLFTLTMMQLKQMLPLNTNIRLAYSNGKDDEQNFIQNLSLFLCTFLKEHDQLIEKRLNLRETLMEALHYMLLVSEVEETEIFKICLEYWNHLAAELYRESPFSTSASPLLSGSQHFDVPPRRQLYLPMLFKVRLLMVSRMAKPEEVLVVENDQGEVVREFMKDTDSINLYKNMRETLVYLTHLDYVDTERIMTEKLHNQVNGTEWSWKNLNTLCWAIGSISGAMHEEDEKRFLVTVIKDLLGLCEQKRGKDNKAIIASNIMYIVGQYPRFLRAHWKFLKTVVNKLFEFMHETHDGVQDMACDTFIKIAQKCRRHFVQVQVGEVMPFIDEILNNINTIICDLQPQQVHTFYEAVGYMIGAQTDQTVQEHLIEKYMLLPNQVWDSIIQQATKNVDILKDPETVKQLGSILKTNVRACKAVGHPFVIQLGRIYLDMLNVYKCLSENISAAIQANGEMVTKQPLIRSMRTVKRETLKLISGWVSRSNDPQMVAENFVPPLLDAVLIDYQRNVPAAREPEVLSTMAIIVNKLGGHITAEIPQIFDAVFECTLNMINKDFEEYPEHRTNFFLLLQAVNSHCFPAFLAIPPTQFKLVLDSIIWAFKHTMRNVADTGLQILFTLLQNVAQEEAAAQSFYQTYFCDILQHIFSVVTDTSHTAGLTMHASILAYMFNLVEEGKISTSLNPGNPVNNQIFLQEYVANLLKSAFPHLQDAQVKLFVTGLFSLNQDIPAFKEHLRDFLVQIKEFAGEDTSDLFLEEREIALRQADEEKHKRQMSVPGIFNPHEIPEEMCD

Row | Compound | Average LFQ intensity [1] | Average LFQ PON_WT [2] | Average LFQ PON_WT [3] | Average LFQ PON_WT [4] | Average LFQ PON_WT [5] | Average LFQ PON_WT [6] | Average LFQ PON_WT [7] | Average LFQ PON_WT [8] | Average LFQ PON_WT [9] | Average LFQ PON_WT [10] | Average LFQ PON_WT [11] | Average LFQ PON_WT [12] | Average LFQ PON_WT [13] | Average LFQ PON_WT [14] | Average LFQ PON_WT [15] | Average LFQ PON_WT [16] | Average LFQ PON_WT [17] | Average LFQ PON_WT [18] | Average LFQ PON_WT [19]
1 | Cc1ccc(C(=O)Nc2ccc(CN3CCN(CCCN)CC3)c(C(F)(F)F)c2)cc1C#Cc1cnc2cccnn12 [c-ponatinib, reference compound] | 22.1378 |  |  |  |  |  |  |  |  |  |  |  |  |  |  |  |  |  | 
2 | Cc1ccc(C(=O)Nc2ccc(CN3CCN(C)CC3)c(C(F)(F)F)c2)cc1C#Cc1cnc2cccnn12 [PON] |  | 19.9263 | 23.5357 | 23.2986 | 25.0833 | 23.6854 | 21.4059 | 23.6067 | 23.8412 | 21.0192 | 24.25 | 23.8618 | 21.3006 | 20.8944 | 20.5654 | 21.3893 | 21.466 | 21.1903 | 24.0947
